Experimental findings from ChEMBL document CHEMBL1133367, “Structure-activity relationship studies of chloromethyl ketone derivatives for selective human chymase inhibitors” (Bioorg Med Chem Lett, 2000) are described below.

One assay has as its target Trypsin (Sus scrofa, UniProt P00761). In words: Inhibitory activity against porcine pancreatic trypsin (TRP).
The target of a further assay is T1, Chymase (Homo sapiens, UniProt P23946).
T1 sequence (P23946 whole entry): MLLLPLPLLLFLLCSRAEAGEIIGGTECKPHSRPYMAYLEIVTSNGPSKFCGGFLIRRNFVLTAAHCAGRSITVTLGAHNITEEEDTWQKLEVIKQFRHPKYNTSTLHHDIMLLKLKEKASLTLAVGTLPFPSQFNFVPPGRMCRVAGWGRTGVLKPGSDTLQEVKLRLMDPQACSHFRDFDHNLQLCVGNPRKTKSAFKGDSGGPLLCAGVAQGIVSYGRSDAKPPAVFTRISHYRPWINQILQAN
In words: Inhibitory activity against human serine protease chymase.

In another assay the target is Chymotrypsinogen A (Bos taurus, UniProt P00766). In words: Inhibitory activity against alpha-chymotrypsin (alpha-CT).
A further assay has as its target T2, Cathepsin G (Homo sapiens, UniProt P08311).
T2 sequence (P08311 whole entry): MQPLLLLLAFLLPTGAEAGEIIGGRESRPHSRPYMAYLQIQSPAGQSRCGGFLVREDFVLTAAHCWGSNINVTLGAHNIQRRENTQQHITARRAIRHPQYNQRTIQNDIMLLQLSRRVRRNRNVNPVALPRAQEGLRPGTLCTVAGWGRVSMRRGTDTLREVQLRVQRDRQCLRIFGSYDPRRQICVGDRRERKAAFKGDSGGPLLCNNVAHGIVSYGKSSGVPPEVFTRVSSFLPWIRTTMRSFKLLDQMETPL
In words: Inhibitory activity against human leukocyte cathepsin G.

Trypsin, sequence (P00761 whole entry): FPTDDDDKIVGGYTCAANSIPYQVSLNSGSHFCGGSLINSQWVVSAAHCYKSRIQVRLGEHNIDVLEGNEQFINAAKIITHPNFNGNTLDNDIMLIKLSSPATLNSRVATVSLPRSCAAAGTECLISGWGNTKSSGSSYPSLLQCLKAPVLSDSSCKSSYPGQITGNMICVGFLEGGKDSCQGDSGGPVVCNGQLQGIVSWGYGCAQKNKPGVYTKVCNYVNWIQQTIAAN

For the molecule `O=C(CCc1cccc(F)c1)N[C@@H](Cc1ccccc1)C(=O)CCl`, the values for the IC50 at Trypsin, against Chymase and on Chymotrypsinogen A were more than 1000 µM, 1.2 µM and 44 µM, respectively.

Regarding `COc1ccc(CCC(=O)N[C@@H](Cc2ccccc2)C(=O)CCl)cc1`, the concentration for half-maximal inhibition (IC50) against Trypsin is more than 1000 µM; at Cathepsin G, 9.3 µM; at Chymotrypsinogen A, 2.2 µM.

On to `O=C(CCCCc1ccccc1)N[C@@H](Cc1ccccc1)C(=O)CCl`, for which the results for the 50% inhibitory concentration (IC50) at Trypsin, against Chymase and against Chymotrypsinogen A were more than 1000 µM, 1.2 µM and 18 µM, respectively.

Turning to `COc1ccc(CCC(=O)N[C@@H](Cc2ccccc2)C(=O)CCl)cc1OC`, the figures for the IC50 against Trypsin and on Chymotrypsinogen A were more than 1000 µM and 51 µM, respectively.

With `O=C(CCc1cccc(Cl)c1Cl)N[C@@H](Cc1ccccc1)C(=O)CCl`, the 50% inhibitory concentration (IC50) against Trypsin turned out to be 97 µM; against Chymase it was 0.4 µM; at Chymotrypsinogen A, 10 µM.

Consider `O=C(CCCc1ccccc1)N[C@@H](Cc1ccccc1)C(=O)CCl`, for which the values for the IC50 against Trypsin, at Chymase and at Chymotrypsinogen A were 690 µM, 2.5 µM and 26 µM, respectively.

Take `COc1cccc(CCC(=O)N[C@@H](Cc2ccccc2)C(=O)CCl)c1`: the half-inhibitory concentration (IC50) at Trypsin is more than 1000 µM; against Chymotrypsinogen A it was 85 µM.

As for `O=C(CCc1cccc(C(F)(F)F)c1)N[C@@H](Cc1ccccc1)C(=O)CCl`, the half-maximal inhibitory concentration (IC50) stood at 34 µM on Trypsin and 20 µM against Chymotrypsinogen A.

As to `O=C(CCc1ccc(Cl)c(Cl)c1)N[C@@H](Cc1ccccc1)C(=O)CCl`, the IC50 at Trypsin is 28 µM; on Chymase it was 3.7 µM; at Chymotrypsinogen A, 4.2 µM.

Turning to `O=C(CCc1ccccc1)N[C@@H](Cc1ccccc1)C(=O)CCl`, the results for the IC50 on Trypsin and on Chymotrypsinogen A were more than 1000 µM and 37 µM, respectively.

Take `O=C(CCc1ccc(C(F)(F)F)cc1)N[C@@H](Cc1ccccc1)C(=O)CCl`: the IC50 on Trypsin stood at 30 µM; on Chymotrypsinogen A, 17 µM.

Regarding `O=C(CCc1ccc(Cl)cc1)N[C@@H](Cc1ccccc1)C(=O)CCl`, the IC50 at Trypsin is more than 1000 µM; at Chymase it was 1.9 µM; against Chymotrypsinogen A it was 18 µM.

As for `O=C(N[C@@H](Cc1ccccc1)C(=O)CCl)c1ccccc1`, the results for the IC50 against Trypsin, at Chymase and against Chymotrypsinogen A were 240 µM, 1.3 µM and 9.3 µM, respectively.

For the molecule `O=C(N[C@@H](Cc1ccccc1)C(=O)CCl)OCc1ccccc1`, the values for the IC50 at Trypsin, on Chymase and on Chymotrypsinogen A were 210 µM, 0.4 µM and 17 µM, respectively.

`O=C(CCc1ccccc1F)N[C@@H](Cc1ccccc1)C(=O)CCl`: the half-inhibitory concentration (IC50) against Chymase turned out to be 0.36 µM; against Chymotrypsinogen A it was 34 µM.

Turning to `O=C(CCc1cccc(O)c1)N[C@@H](Cc1ccccc1)C(=O)CCl`, the concentration for half-maximal inhibition (IC50) was 75 µM on Trypsin, 1.8 µM against Chymase and 5.2 µM at Chymotrypsinogen A.

With `COc1ccccc1CCC(=O)N[C@@H](Cc1ccccc1)C(=O)CCl`, the concentration for half-maximal inhibition (IC50) against Trypsin was 34 µM; at Chymotrypsinogen A, 2.7 µM.

Turning to `Cc1cccc(CCC(=O)N[C@@H](Cc2ccccc2)C(=O)CCl)c1`, the IC50 on Trypsin worked out at 290 µM; at Chymase it was 0.43 µM; on Chymotrypsinogen A, 11 µM.

In the case of `O=C(CCc1ccc(F)cc1)N[C@@H](Cc1ccccc1)C(=O)CCl`, the half-inhibitory concentration (IC50) at Trypsin is more than 1000 µM; against Chymase, 2.4 µM; against Chymotrypsinogen A, 100 µM.

Regarding `CCc1ccc(CCC(=O)N[C@@H](Cc2ccccc2)C(=O)CCl)cc1`, the IC50 against Trypsin came to 120 µM; against Chymotrypsinogen A it was 37 µM.

On to `COc1cccc(CCC(=O)N[C@@H](Cc2ccccc2)C(=O)CCl)c1OC`, for which the half-inhibitory concentration (IC50) was more than 1000 µM against Trypsin and 2.2 µM against Chymotrypsinogen A.

On to `O=C(CCc1cccc(Cl)c1)N[C@@H](Cc1ccccc1)C(=O)CCl`, for which the IC50 against Trypsin was found to be 44 µM; on Chymase, 0.89 µM; at Chymotrypsinogen A it was 23 µM.

For the molecule `O=C(CCc1ccccc1Cl)N[C@@H](Cc1ccccc1)C(=O)CCl`, the figures for the IC50 against Trypsin, on Chymase and against Chymotrypsinogen A were 85 µM, 0.6 µM and 97 µM, respectively.

For `O=C(/C=C/c1ccccc1)N[C@@H](Cc1ccccc1)C(=O)CCl`, the results for the IC50 on Trypsin, on Chymase and against Chymotrypsinogen A were 210 µM, 15 µM and 8.7 µM, respectively.

`Cc1ccccc1CCC(=O)N[C@@H](Cc1ccccc1)C(=O)CCl`: the concentration for half-maximal inhibition (IC50) against Trypsin was determined as 600 µM; at Chymase, 0.78 µM; against Chymotrypsinogen A, 12 µM.

On to `O=C(CCc1ccc(O)cc1)N[C@@H](Cc1ccccc1)C(=O)CCl`, for which the IC50 was more than 1000 µM at Trypsin, 2.7 µM against Chymase and 14 µM at Chymotrypsinogen A.

In the case of `O=C(Cc1ccccc1)N[C@@H](Cc1ccccc1)C(=O)CCl`, the values for the IC50 at Trypsin, against Chymase and at Chymotrypsinogen A were more than 1000 µM, 4.7 µM and 20 µM, respectively.

Take `CC(C)c1ccc(CCC(=O)N[C@@H](Cc2ccccc2)C(=O)CCl)cc1`: the half-inhibitory concentration (IC50) was 4 µM against Trypsin and 39 µM at Chymotrypsinogen A.

With `Cc1ccc(S(=O)(=O)N[C@@H](Cc2ccccc2)C(=O)CCl)cc1` [TPCK], the half-inhibitory concentration (IC50) on Trypsin turned out to be 200 µM; at Chymase, 3.3 µM; on Cathepsin G, 110 µM; on Chymotrypsinogen A, 140 µM.

Turning to `Cc1ccc(CCC(=O)N[C@@H](Cc2ccccc2)C(=O)CCl)cc1`, the IC50 on Trypsin was 260 µM; on Chymase it was 0.3 µM; on Chymotrypsinogen A, 97 µM.

By IC50 is commonly meant the concentration needed to halve the response being measured. A lower IC50 goes with higher potency.
